Test results: ChEMBL document CHEMBL4840359, “N-Terminus to Arginine Side-Chain Cyclization of Linear Peptidic Neuropeptide Y Y4 Receptor Ligands Results in Picomolar Binding Constants” (J Med Chem, 2021)
Active and inactive are the calls of the source. The rule behind the calls is not given here. Starred links: 1 amine or outer side, 2 acyl side, 3 side chain; linkers in the order of their positions; H or OH if unused. Residues, ends and D or L forms follow the SMILES beside them. Groups on a side chain read outwards from the residue. *: point of attachment. Suc = O=C(CCC(=O)[*:2])[*:1]; NH(CH2)4NH2 = NCCCCN*; CO = O=C([*:1])[*:2]

Columns and labels:
[1] = molecular target: T1, Neuropeptide Y receptor type 4 (Homo sapiens, UniProt P50391); assay: Displacement of [3H]UR-KK200 from human neuropeptide Y Y4 receptor expressed in CHO-mtAEQ cells co-expressing Gqi5 measured after 90 mins by scintillation counting analysis; assay type: cell-based
T1 sequence (P50391 whole entry): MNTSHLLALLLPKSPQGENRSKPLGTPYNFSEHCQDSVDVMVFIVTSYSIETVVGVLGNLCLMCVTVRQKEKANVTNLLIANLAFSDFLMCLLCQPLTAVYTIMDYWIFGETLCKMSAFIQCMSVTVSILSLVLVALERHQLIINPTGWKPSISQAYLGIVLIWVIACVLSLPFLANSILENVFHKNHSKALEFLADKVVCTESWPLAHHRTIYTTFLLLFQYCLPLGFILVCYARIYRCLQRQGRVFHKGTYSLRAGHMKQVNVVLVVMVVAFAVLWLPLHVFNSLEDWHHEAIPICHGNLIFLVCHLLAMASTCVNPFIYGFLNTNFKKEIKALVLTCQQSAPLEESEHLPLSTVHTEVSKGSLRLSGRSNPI

[2] = molecular target: T1, Neuropeptide Y receptor type 4; assay: Displacement of [3H]UR-KK200 from human neuropeptide Y Y4 receptor expressed in CHO-mtAEQ cells co-expressing Gqi5 assessed as fold change in affinity measured after 90 mins by scintillation counting analysis relative to Ac-Arg-Tyr-Arg-Leu-Arg-Tyr-NH2; assay type: cell-based; conditions: filed as agonist
[3] = molecular target: T2, Neuropeptide Y receptor type 1 (Homo sapiens, UniProt P25929); assay: Displacement of [3H]UR-MK299 from human neuropeptide Y Y1 receptor in human SK-N-MC cells measured after 90 mins by scintillation counting analysis; assay type: cell-based
T2 sequence (P25929 whole entry): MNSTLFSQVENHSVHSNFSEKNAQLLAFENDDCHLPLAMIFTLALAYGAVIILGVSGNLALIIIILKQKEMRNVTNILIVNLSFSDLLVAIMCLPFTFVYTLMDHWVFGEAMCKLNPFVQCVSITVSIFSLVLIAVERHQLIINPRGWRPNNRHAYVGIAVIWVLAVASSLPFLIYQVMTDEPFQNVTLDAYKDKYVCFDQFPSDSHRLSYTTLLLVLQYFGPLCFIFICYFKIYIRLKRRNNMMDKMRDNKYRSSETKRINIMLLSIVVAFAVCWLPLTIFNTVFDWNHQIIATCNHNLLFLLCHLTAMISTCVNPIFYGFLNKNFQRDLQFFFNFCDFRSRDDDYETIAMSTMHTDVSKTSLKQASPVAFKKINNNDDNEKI

[4] = molecular target: T3, Neuropeptide Y receptor type 2 (Homo sapiens, UniProt P49146); assay: Displacement of [3H]UR-MK299 from human neuropeptide Y Y2 receptor expressed in CHO cells measured after 90 mins by scintillation counting analysis; assay type: cell-based
T3 sequence (P49146 whole entry): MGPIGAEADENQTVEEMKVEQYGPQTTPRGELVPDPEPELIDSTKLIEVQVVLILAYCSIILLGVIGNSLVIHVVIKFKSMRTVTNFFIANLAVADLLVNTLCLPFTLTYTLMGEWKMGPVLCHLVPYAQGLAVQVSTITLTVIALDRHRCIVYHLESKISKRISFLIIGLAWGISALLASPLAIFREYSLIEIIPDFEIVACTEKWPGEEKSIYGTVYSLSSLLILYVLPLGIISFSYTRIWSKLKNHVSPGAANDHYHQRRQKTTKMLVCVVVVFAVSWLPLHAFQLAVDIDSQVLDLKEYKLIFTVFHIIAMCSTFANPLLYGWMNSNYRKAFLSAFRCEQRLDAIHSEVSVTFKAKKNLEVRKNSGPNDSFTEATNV

[5] = molecular target: T4, Neuropeptide Y receptor type 5 (Homo sapiens, UniProt Q15761); assay: Displacement of [3H]propionyl-pNPY from human neuropeptide Y Y5 receptor in human HEC-1B cells measured after 90 mins by scintillation counting analysis; assay type: cell-based, HEC-1B cell line
T4 sequence (Q15761 whole entry): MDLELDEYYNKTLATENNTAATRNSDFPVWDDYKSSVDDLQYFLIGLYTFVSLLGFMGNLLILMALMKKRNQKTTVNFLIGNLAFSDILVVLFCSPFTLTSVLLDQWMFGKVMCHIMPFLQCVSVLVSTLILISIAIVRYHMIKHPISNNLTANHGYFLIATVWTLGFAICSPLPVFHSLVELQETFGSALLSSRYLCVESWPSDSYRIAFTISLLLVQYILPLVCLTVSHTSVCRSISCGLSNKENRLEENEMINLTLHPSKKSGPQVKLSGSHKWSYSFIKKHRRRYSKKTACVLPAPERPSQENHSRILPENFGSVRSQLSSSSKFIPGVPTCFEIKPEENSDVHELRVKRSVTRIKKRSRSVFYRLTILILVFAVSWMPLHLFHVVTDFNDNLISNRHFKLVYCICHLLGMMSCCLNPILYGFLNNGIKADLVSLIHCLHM

[6] = species: Homo sapiens; assay: (§1) Selectivity ratio, Ki for displacement of [3H]UR-MK299 from human neuropeptide Y Y1 receptor in human SK-N-MC cells measured after 90 mins by scintillation counting analysis to Ki for displacement of [3H]UR-KK200 from human neuropeptide Y Y4 receptor expressed in CHO-mtAEQ cells co-expressing Gqi5 measured after 90 mins by scintillation counting analysis; assay type: cell-based
[7] = species: Homo sapiens; assay: Selectivity ratio, Ki for displacement of [3H]UR-MK299 from human neuropeptide Y Y2 receptor expressed in CHO cells measured after 90 mins by scintillation counting analysis to Ki for displacement of [3H]UR-KK200 from human neuropeptide Y Y4 receptor expressed in CHO-mtAEQ cells co-expressing Gqi5 measured after 90 mins by scintillation counting analysis; assay type: cell-based
[8] = species: Homo sapiens; assay: as §1, with “[3H]propionyl-pNPY” for “[3H]UR-MK299”, “Y5” for “Y1”, “HEC-1B” for “SK-N-MC”; assay type: cell-based
[9] = molecular target: T1, Neuropeptide Y receptor type 4; assay: Agonist activity at human neuropeptide Y Y4 receptor expressed in HEK293T-ARRB1 cells assessed as stimulation of beta-arrestin 1 recruitment by multimode plate reader; assay type: functional, cell-based
[10] = molecular target: T1, Neuropeptide Y receptor type 4; assay: Intrinsic activity at human neuropeptide Y Y4 receptor expressed in HEK293T-ARRB1 cells assessed as stimulation of beta-arrestin 1 recruitment by multimode plate reader relative to hPP; assay type: functional, cell-based
[11] = molecular target: T1, Neuropeptide Y receptor type 4; assay: Agonist activity at human neuropeptide Y Y4 receptor expressed in HEK293T-ARRB2 cells assessed as stimulation of beta-arrestin 2 recruitment by multimode plate reader; assay type: functional, cell-based
[12] = molecular target: T1, Neuropeptide Y receptor type 4; assay: Intrinsic activity at human neuropeptide Y Y4 receptor expressed in HEK293T-ARRB2 cells assessed as stimulation of beta-arrestin 2 recruitment by multimode plate reader relative to hPP; assay type: functional, cell-based
[13] = molecular target: T1, Neuropeptide Y receptor type 4; assay: Agonist activity at human neuropeptide Y Y4 receptor expressed in CHO-mtAEQ cells co-expressing Gqi5 by calcium aequorin assay; assay type: functional, cell-based
[14] = molecular target: T1, Neuropeptide Y receptor type 4; assay: Intrinsic activity at human neuropeptide Y Y4 receptor expressed in CHO-mtAEQ cells co-expressing Gqi5 by calcium aequorin assay; assay type: functional, cell-based

Structure (SMILES)	Ki ([1]; read-out: Ki) [µM]	fold change (FC) [2]	Ki ([3]; read-out: pKi (converted)) [µM]	Ki ([4]; read-out: Ki) [µM]	Ki ([4]; read-out: pKi (converted)) [µM]	Ki ([5]; read-out: pKi (converted)) [µM]	EC50 ([9]; read-out: EC50) [µM]	Intrinsic activity [10]	EC50 [11] [µM]	Intrinsic activity [12]	EC50 [13] [µM]	Intrinsic activity [14]	Ki ([1]; read-out: pKi (converted)) [µM]	EC50 ([9]; read-out: pEC50 (converted)) [µM]	Selectivity ratio [6]	Selectivity ratio [7]	Selectivity ratio [8]	further results
CC(C)C[C@@H]1NC(=O)[C@H](CCCNC(=N)N)NC(=O)[C@H](Cc2ccc(O)cc2)NC(=O)[C@H](CCCNC(=N)N)NC(=O)CCC(=O)NCCCNC(=O)NC(=N)NCCC[C@@H](C(=O)N[C@@H](Cc2ccc(O)cc2)C(N)=O)NC1=O	0.14	-41	–	–	–	–	–	inactive	> 10	inactive	> 10	inactive	–	> 10	–	–	–	–
CC(C)C[C@H](NC(=O)[C@H](CCCNC(=N)N)NC(=O)[C@H](Cc1ccc(O)cc1)NC(=O)[C@H](CCCNC(=N)N)NC(=O)CCC(=O)O)C(=O)N[C@@H](CCCNC(=N)NC(=O)NCCCN)C(=O)N[C@@H](Cc1ccc(O)cc1)C(N)=O	0.053	-16	–	–	–	–	–	inactive	> 10	inactive	> 10	inactive	–	> 10	–	–	–	–
CC(C)C[C@H](NC(=O)[C@H](CCCNC(=N)NC(=O)NCCCCN)NC(=O)[C@H](Cc1ccc(O)cc1)NC(=O)[C@H](CCCCN)NC(=O)CCC(=O)O)C(=O)N[C@@H](CCCNC(=N)N)C(=O)N[C@@H](Cc1ccc(O)cc1)C(N)=O (Suc-KYR([CO-NH(CH2)4NH2])LRY-NH2)	0.0071	-2.1	> 10	> 10	> 10	> 10	0.27	57%	0.295	61%	–	–	0.00692	–	> 1400	> 1400	> 1000	Ki ([3]; sk-n-mc, read-out: Ki): > 10 µM; Ki ([5]; hec-1b cell line, read-out: Ki): > 10 µM
CC(C)C[C@H](NC(=O)[C@H](CCCNC(=N)NC(=O)NCCCCN)NC(=O)[C@H](CCCNC(=N)N)NC(=O)CCC(=O)O)C(=O)N[C@@H](CCCNC(=N)N)C(=O)N[C@@H](Cc1ccc(O)cc1)C(N)=O (Suc-RR([CO-NH(CH2)4NH2])LRY-NH2)	0.01	-2.9	> 10	> 10	> 10	> 10	0.99	71%	0.759	60%	–	–	–	–	> 1000	> 1000	> 1000	Ki ([3]; sk-n-mc, read-out: Ki): > 10 µM
CC(=O)N[C@@H](CCCNC(=N)N)C(=O)N[C@@H](Cc1ccc(O)cc1)C(=O)N[C@@H](CCCNC(=N)N)C(=O)N[C@@H](CC(C)C)C(=O)N[C@@H](CCCNC(=N)N)C(=O)N[C@@H](Cc1ccc(O)cc1)C(N)=O	–	–	> 3.16	–	> 3.16	> 3.16	–	55%	–	61%	–	75%	–	–	> 830	> 830	> 830	–

The remaining compounds from weak to strong by Ki ([1]; read-out: Ki), led by results:

Ki ([1]; read-out: Ki) [µM]	fold change (FC) [2]	Ki ([3]; read-out: pKi (converted)) [µM]	Ki ([4]; read-out: Ki) [µM]	Ki ([4]; read-out: pKi (converted)) [µM]	Ki ([5]; read-out: pKi (converted)) [µM]	EC50 ([9]; read-out: EC50) [µM]	Intrinsic activity [10]	EC50 [11] [µM]	Intrinsic activity [12]	EC50 [13] [µM]	Intrinsic activity [14]	Ki ([1]; read-out: pKi (converted)) [µM]	EC50 ([9]; read-out: pEC50 (converted)) [µM]	Structure (SMILES)	Selectivity ratio [6]	Selectivity ratio [7]	Selectivity ratio [8]	further results
0.17	-50	–	–	–	–	–	inactive	> 10	inactive	> 10	inactive	0.138	> 10	CC(C)C[C@H](NC(=O)[C@@H]1CC(=O)NCC(=O)N[C@H](CCCNC(=N)N)C(=O)N[C@@H](CCCNC(=N)N)C(=O)N1)C(=O)N[C@@H](CCCNC(=N)N)C(=O)N[C@@H](Cc1ccc(O)cc1)C(N)=O	–	–	–	–
0.0014	2.4	> 3.16	> 3	> 3.16	> 1000	0.18	87%	0.0933	83%	0.363	61%	–	–	CC(C)C[C@H](NC(=O)[C@@H]1CCCNC(=N)NC(=O)NCCCCNC(=O)CCC(=O)N[C@@H](CCCNC(=N)N)C(=O)N1)C(=O)N[C@@H](CCCNC(=N)N)C(=O)N[C@@H](Cc1ccc(O)cc1)C(N)=O (HELM PEPTIDE1{R.[N=C(NCCC[C@H](N[*:1])C(=O)[*:2])N[*:3]].L.R.Y.[am]}|CHEM1{[O=C(CCC(=O)[*:1])NCCCCNC(=O)[*:2]]}$PEPTIDE1,CHEM1,1:R1-1:R1|PEPTIDE1,CHEM1,2:R3-1:R2$$$V2.0)	> 2100	> 2100	> 7100	Ki ([3]; read-out: Ki): > 3 µM; Ki ([5]; read-out: Ki): > 10 µM
0.00066	5.2	> 10	> 10	> 10	> 10	0.05	61%	0.129	71%	0.178	65%	0.000646	–	CC(C)C[C@H](NC(=O)[C@H](CCCNC(=N)NC(=O)NCCCN)NC(=O)[C@H](Cc1ccc(O)cc1)NC(=O)[C@H](CCCNC(=N)N)NC(=O)CCC(=O)O)C(=O)N[C@@H](CCCNC(=N)N)C(=O)N[C@@H](Cc1ccc(O)cc1)C(N)=O	> 15000	> 15000	> 15000	Ki ([5]; hec-1b cell line, read-out: Ki): > 10 µM
0.00024	14	> 3.16	> 10	> 10	> 3.16	0.014	61%	0.0129	67%	0.0257	75%	–	–	CC(C)C[C@H](NC(=O)[C@@H]1CCCNC(=N)NC(=O)NCCCCNC(=O)CCC(=O)N[C@@H](CCCCN)C(=O)N[C@@H](Cc2ccc(O)cc2)C(=O)N1)C(=O)N[C@@H](CCCNC(=N)N)C(=O)N[C@@H](Cc1ccc(O)cc1)C(N)=O (HELM PEPTIDE1{K.Y.[N=C(NCCC[C@H](N[*:1])C(=O)[*:2])N[*:3]].L.R.Y.[am]}|CHEM1{[O=C(CCC(=O)[*:1])NCCCCNC(=O)[*:2]]}$PEPTIDE1,CHEM1,1:R1-1:R1|PEPTIDE1,CHEM1,3:R3-1:R2$$$V2.0)	> 12000	> 40000	> 12000	Ki ([3]; read-out: Ki): > 3 µM; Ki ([5]; read-out: Ki): > 3 µM
